Measurements taken from US20230000876A1, “TREATING CANCERS WITH A CYCLIN-DEPENDENT KINASE INHIBITOR” (Nuvation Bio Inc., priority 2021, published 2023).
Read-outs that look alike come from different tables or passages of the source.

Assay: Pharmacokinetics and brain distribution after single oral dose, rats
Type: in vivo, male Sprague-Dawley rats
Details: for Kp at 6 h / concentration at 6 h / Cmax / Tmax / concentration at 1 h / concentration at 2 h / concentration at 4 h / concentration at 8 h / concentration at 12 h / AUC(0-inf) / half-life / concentration at 24 h: male, Sprague-Dawley, rat; for Kp at 6 h: po
Procedure: The pharmacokinetics and brain distribution in maleCD1 mice and Sprague-Dawley rats following a single oral (PO) dose was evaluated. The compound of formula (I) was administered once at 10 mg/kg to mice and at 1, 10, 30, and 100 mg/kg to rats. All doses, compound of formula (I) concentrations, and derived PK parameters are expressed as the free base of the compound of formula (I).
The in-life portion of these studies was performed by Alliance Pharma (Malvern, Pa.) according to Protocols 200107-02 (mice) and 1910158-02 (rats). Animals were assigned randomly to the dose groups and were fasted 12 hours prior to dosing. Water was available ad libitum. The compound of formula (I) (as an HCl salt) was given to male CD1 mice at 10 mg/kg single PO dose, while in Sprague-Dawley rats, the doses were 1, 10, 30, and 100 mg/kg. In both studies, the compound of formula (I) was formulated in 0.5% hydroxypropyl methylcellulose (HPMC)/0.2% Tween 80 and the dosing volume was 5 mL/kg for all dose groups.
Whole blood was collected at 2, 4, 6, and 12 hours post dose from mice and predose and 1, 2, 4, 8, 12, and 24 hours post dose from rats into tubes containing dipotassium ethylenediaminetetraacetic acid (K2EDTA). Blood was obtained from 3 mice and 4 rats per time-point per dose level. The blood samples were processed into plasma analyzed at Alliance Pharma using the method as described below.
The brain tissue was collected from mice at 2, 4, 6, and 12 hours post dose and was collected from rats at 6 hours post dose given 1, 10, 30, or 100 mg/kg of the compound of formula (I). Brain tissue was obtained from 3 mice per time-point at the 10 mg/kg dose level and 4 rats per dose level at the 6-hour post dose time-point.
Brain tissue was rinsed by phosphate-buffered saline (PBS) buffer immediately after harvest, weighed, and mixed with solvent (MeOH:H2O [volume over volume of 20:80]) with a ratio of tissue to solvent of 1:4 (weight over volume). […] After homogenization, the homogenate was aliquoted out for sample analysis.
The concentrations of the compound of formula (I) in the plasma and brain homogenate were determined versus a calibration curve prepared in plasma and naïve brain homogenate, respectively. Samples were deproteinized with acetonitrile containing tolbutamide as internal standard. After centrifugation, the supernatants were analyzed by liquid chromatography with tandem mass spectrometry (LC-MS/MS). Chromatography was performed with a Zorbax SB-C18 (50×2.1 mm, […]) column under gradient conditions described in Table 22. Mobile Phase A (0.1% formic acid [FA] in water) and Mobile Phase B (0.1% FA in acetonitrile) were delivered as a flow rate of 0.8 mL/min. LC-MS/MS was performed using a positive TurboIonSpray® interface on a SciexAPI 4000 and multiple-reaction monitoring (MRM) over a concentration range of 1 ng/mL to 1000 (rats) or 2000 (mice) ng/mL for the plasma and brain homogenate samples.
The mean plasma concentration-time data of the compound of formula (I) was used to determine the pharmacokineticparameters by standard noncompartmental methods using Phoenix® WinNonlin (version 8.2.0; Certara, Princeton, N.J.). Graphs were plotted in Prism® (version 2.3.0; GraphPad, San Diego, Calif.). Concentrations were rounded to 3 significant figures.

[1] = plasma, single PO 1 mg/kg (HCl salt, as free base)
[2] = plasma, single PO 10 mg/kg (HCl salt, as free base)
[3] = plasma, single PO 30 mg/kg (HCl salt, as free base)
[4] = plasma, single PO 100 mg/kg (HCl salt, as free base)

CC(C)N1CCOc2c(F)cc(-c3nc(Nc4ccc(C5CCN(C)CC5)cn4)ncc3F)cc21 [Compound (I), 5-fluoro-4-(8-fluoro-4-isopropyl-3,4-dihydro-2H-benzo[b][1,4]oxazin-6-yl)-N-(5-(1-methylpiperidin-4-yl)pyridin-2-yl)pyrimidin-2-amine]
Kp at 6 h (brain, 1 mg/kg, single PO 1 mg/kg, 6 h, read-out: Brain:Plasma Ratio): 6.3 | Kp at 6 h (brain, 10 mg/kg, single PO 10 mg/kg, 6 h, read-out: Brain:Plasma Ratio): 6.1 | Kp at 6 h (brain, 30 mg/kg, single PO 30 mg/kg, 6 h, read-out: Brain:Plasma Ratio): 11 | Kp at 6 h (brain, 100 mg/kg, 6 hours post-dose, each dose level (1, 10, 30, 100 mg/kg PO), read-out: Brain-to-plasma concentration ratio): > 6 | Kp at 6 h (brain, 100 mg/kg, single PO 100 mg/kg, 6 h, read-out: Brain:Plasma Ratio): 12 | concentration at 6 h (brain, single PO 1 mg/kg, 6 h, read-out: Brain Conc): 58.9 ng/mL | concentration at 6 h (brain, single PO 10 mg/kg, 6 h, read-out: Brain Conc): 548 ng/mL | concentration at 6 h (brain, single PO 30 mg/kg, 6 h, read-out: Brain Conc): 1970 ng/mL | concentration at 6 h (brain, single PO 100 mg/kg, 6 h, read-out: Brain Conc): 2800 ng/mL | Cmax (plasma, single PO 1 mg/kg): 9.37 ng/mL | Tmax (plasma, single PO 1 mg/kg): 6 h | concentration at 1 h [1]: 1.52 ng/mL | concentration at 2 h [1]: 2.41 ng/mL | concentration at 4 h [1]: 4.91 ng/mL | concentration at 6 h (plasma, single PO 1 mg/kg (HCl salt, as free base), 6 h, read-out: Mean Plasma Concentration): 9.37 ng/mL | concentration at 8 h [1]: 6.42 ng/mL | concentration at 12 h [1]: 4.64 ng/mL | AUC(0-inf) (plasma, single PO 10 mg/kg): 1080 ng·h/mL | Cmax (plasma, single PO 10 mg/kg): 90.4 ng/mL | Tmax (plasma, single PO 10 mg/kg): 6 h | half-life (plasma, single PO 10 mg/kg): 7.54 h | concentration at 1 h [2]: 8.45 ng/mL | concentration at 2 h [2]: 25.9 ng/mL | concentration at 4 h [2]: 51.6 ng/mL | concentration at 6 h (plasma, single PO 10 mg/kg (HCl salt, as free base), 6 h, read-out: Mean Plasma Concentration): 90.4 ng/mL | concentration at 8 h [2]: 52.5 ng/mL | concentration at 12 h [2]: 46.3 ng/mL | concentration at 24 h (plasma, single PO 10 mg/kg (HCl salt, as free base), 24 h): 12.9 ng/mL | AUC(0-inf) (plasma, single PO 30 mg/kg): 3870 ng·h/mL | Cmax (plasma, single PO 30 mg/kg): 180 ng/mL | Tmax (plasma, single PO 30 mg/kg): 6 h | half-life (plasma, single PO 30 mg/kg): 13.4 h | concentration at 1 h [3]: 43.2 ng/mL | concentration at 2 h [3]: 73.1 ng/mL | concentration at 4 h [3]: 136 ng/mL | concentration at 6 h (plasma, single PO 30 mg/kg (HCl salt, as free base), 6 h, read-out: Mean Plasma Concentration): 180 ng/mL | concentration at 8 h [3]: 155 ng/mL | concentration at 12 h [3]: 117 ng/mL | concentration at 24 h (plasma, single PO 30 mg/kg (HCl salt, as free base), 24 h): 66.4 ng/mL | Cmax (plasma, single PO 100 mg/kg): 243 ng/mL | Tmax (plasma, single PO 100 mg/kg): 6 h | concentration at 1 h [4]: 81.2 ng/mL | concentration at 2 h [4]: 142 ng/mL | concentration at 4 h [4]: 151 ng/mL | concentration at 6 h (plasma, single PO 100 mg/kg (HCl salt, as free base), 6 h, read-out: Mean Plasma Concentration): 243 ng/mL | concentration at 8 h [4]: 170 ng/mL | concentration at 12 h [4]: 193 ng/mL | concentration at 24 h (plasma, single PO 100 mg/kg (HCl salt, as free base), 24 h): 224 ng/mL | Mean Plasma Concentration (single PO 1 mg/kg (HCl salt, as free base), 24 h): BQL
